# According to ChEMBL document CHEMBL3817739, “Synthesis and cytotoxic evaluation of several oleanolic aciduracil/thymine conjugates” (Medchemcomm, 2016):
# How the values were obtained:
# [1] = system: HepG2; test: Cytotoxicity against human HepG2 cells assessed as inhibition of cell proliferation after 72 hrs by MTT assay; assay type: functional, cell-based; conditions: HepG2, 72 h
# [2] = Cytotoxicity against human PC3 cells assessed as inhibition of cell proliferation after 72 hrs by MTT assay; assay type: functional, cell-based, PC-3
# [3] = system: A549; test: Cytotoxicity against human A549 cells assessed as inhibition of cell proliferation after 72 hrs by MTT assay; assay type: functional, cell-based; conditions: A549, 72 h
# [4] = system: MCF7; test: Cytotoxicity against human MCF7 cells assessed as inhibition of cell proliferation after 72 hrs by MTT assay; assay type: functional, cell-based; conditions: MCF7, 72 h
# [5] = Cytotoxicity against human BGC823 cells assessed as inhibition of cell proliferation after 72 hrs by MTT assay; assay type: functional, cell-based; conditions: BGC-823, 72 h
# [6] = Homo sapiens, PC-3, 72 h, read-out: IC50
compound,measurement,setting,value
CC1(C)CC[C@]2(C(=O)OCCCCn3ccc(=O)n(CCCCOC(=O)[C@]45CCC(C)(C)C[C@H]4C4=CC[C@@H]6[C@@]7(C)CC[C@H](O)C(C)(C)[C@@H]7CC[C@@]6(C)[C@]4(C)CC5)c3=O)CC[C@]3(C)C(=CC[C@@H]4[C@@]5(C)CC[C@H](O)C(C)(C)[C@@H]5CC[C@]43C)[C@@H]2C1,IC50,[1],3.95 µM
same,IC50,[2]; [6],4.79 µM
same,IC50,[3],4.09 µM
same,IC50,[4],130 µM
same,IC50,[5],0.15 µM
CC1(C)CC[C@]2(C(=O)OCCCCCCCCn3ccc(=O)n(CCCCCCCCOC(=O)[C@]45CCC(C)(C)C[C@H]4C4=CC[C@@H]6[C@@]7(C)CC[C@H](O)C(C)(C)[C@@H]7CC[C@@]6(C)[C@]4(C)CC5)c3=O)CC[C@]3(C)C(=CC[C@@H]4[C@@]5(C)CC[C@H](O)C(C)(C)[C@@H]5CC[C@]43C)[C@@H]2C1,IC50,[1],10.3 µM
same,IC50,[2]; [6],22.2 µM
same,IC50,[3],37.1 µM
same,IC50,[4],3.78 µM
same,IC50,[5],0.27 µM
O=c1[nH]cc(F)c(=O)[nH]1 [FLUOROURACIL],IC50,[1],55.7 µM
same,IC50,[2]; [6],12.2 µM
same,IC50,[3],22.6 µM
same,IC50,[4],21.5 µM
same,IC50,[5],8.82 µM
Cc1cn(CCCCCCOC(=O)[C@]23CCC(C)(C)C[C@H]2C2=CC[C@@H]4[C@@]5(C)CC[C@H](O)C(C)(C)[C@@H]5CC[C@@]4(C)[C@]2(C)CC3)c(=O)n(CCCCCCOC(=O)[C@]23CCC(C)(C)C[C@H]2C2=CC[C@@H]4[C@@]5(C)CC[C@H](O)C(C)(C)[C@@H]5CC[C@@]4(C)[C@]2(C)CC3)c1=O,IC50,[1],4.84 µM
same,IC50,[2]; [6],0.87 µM
same,IC50,[3],< 0.1 µM
same,IC50,[4],33.6 µM
same,IC50,[5],0.62 µM
Cc1cn(CCOC(=O)[C@]23CCC(C)(C)C[C@H]2C2=CC[C@@H]4[C@@]5(C)CC[C@H](O)C(C)(C)[C@@H]5CC[C@@]4(C)[C@]2(C)CC3)c(=O)n(CCOC(=O)[C@]23CCC(C)(C)C[C@H]2C2=CC[C@@H]4[C@@]5(C)CC[C@H](O)C(C)(C)[C@@H]5CC[C@@]4(C)[C@]2(C)CC3)c1=O,IC50,[1],5.19 µM
same,IC50,[2]; [6],1.16 µM
same,IC50,[3],0.79 µM
same,IC50,[4],3.02 µM
same,IC50,[5],1.89 µM
CC1(C)CC[C@]2(C(=O)OCCn3ccc(=O)n(CCOC(=O)[C@]45CCC(C)(C)C[C@H]4C4=CC[C@@H]6[C@@]7(C)CC[C@H](O)C(C)(C)[C@@H]7CC[C@@]6(C)[C@]4(C)CC5)c3=O)CC[C@]3(C)C(=CC[C@@H]4[C@@]5(C)CC[C@H](O)C(C)(C)[C@@H]5CC[C@]43C)[C@@H]2C1,IC50,[1],111 µM
same,IC50,[2]; pc-3,Not Active
same,IC50,[3],9.21 µM
same,IC50,[4],29.8 µM
same,IC50,[5],0.86 µM
Cc1cn(CCCCCCOC(=O)[C@]23CCC(C)(C)C[C@H]2C2=CC[C@@H]4[C@@]5(C)CC[C@H](O)C(C)(C)[C@@H]5CC[C@@]4(C)[C@]2(C)CC3)c(=O)[nH]c1=O,IC50,[1],5.09 µM
same,IC50,[2]; [6],8.37 µM
same,IC50,[3],< 0.1 µM
same,IC50,[4],4.01 µM
same,IC50,[5],0.37 µM
CC1(C)CC[C@]2(C(=O)OCCCCn3ccc(=O)[nH]c3=O)CC[C@]3(C)C(=CC[C@@H]4[C@@]5(C)CC[C@H](O)C(C)(C)[C@@H]5CC[C@]43C)[C@@H]2C1,IC50,[1],4.21 µM
same,IC50,[2]; [6],1.45 µM
same,IC50,[3],0.11 µM
same,IC50,[4],70.4 µM
same,IC50,[5],0.93 µM
CC1(C)CC[C@]2(C(=O)O)CC[C@]3(C)C(=CC[C@@H]4[C@@]5(C)CC[C@H](O)C(C)(C)[C@@H]5CC[C@]43C)[C@@H]2C1 [OLEANOLIC_ACID],IC50,[1],15.9 µM
same,IC50,[2]; [6],72.7 µM
same,IC50,[3],16.3 µM
same,IC50,[4],12.6 µM
same,IC50,[5],23.7 µM
Cc1cn(CCCCOC(=O)[C@]23CCC(C)(C)C[C@H]2C2=CC[C@@H]4[C@@]5(C)CC[C@H](O)C(C)(C)[C@@H]5CC[C@@]4(C)[C@]2(C)CC3)c(=O)[nH]c1=O,IC50,[1],2.41 µM
same,IC50,[2]; [6],0.43 µM
same,IC50,[3],4.73 µM
same,IC50,[4],1.03 µM
same,IC50,[5],1.13 µM
Cc1cn(CCCCOC(=O)[C@]23CCC(C)(C)C[C@H]2C2=CC[C@@H]4[C@@]5(C)CC[C@H](O)C(C)(C)[C@@H]5CC[C@@]4(C)[C@]2(C)CC3)c(=O)n(CCCCOC(=O)[C@]23CCC(C)(C)C[C@H]2C2=CC[C@@H]4[C@@]5(C)CC[C@H](O)C(C)(C)[C@@H]5CC[C@@]4(C)[C@]2(C)CC3)c1=O,IC50,[1],3.02 µM
same,IC50,[2]; [6],1.28 µM
same,IC50,[3],< 0.1 µM
same,IC50,[4],3.69 µM
same,IC50,[5],16 µM
CC1(C)CC[C@]2(C(=O)OCCCCCCn3ccc(=O)n(CCCCCCOC(=O)[C@]45CCC(C)(C)C[C@H]4C4=CC[C@@H]6[C@@]7(C)CC[C@H](O)C(C)(C)[C@@H]7CC[C@@]6(C)[C@]4(C)CC5)c3=O)CC[C@]3(C)C(=CC[C@@H]4[C@@]5(C)CC[C@H](O)C(C)(C)[C@@H]5CC[C@]43C)[C@@H]2C1,IC50,[1],0.99 µM
same,IC50,[2]; [6],15.5 µM
same,IC50,[3],6.98 µM
same,IC50,[4],< 0.1 µM
same,IC50,[5],0.68 µM
Cc1cn(CCCCCCCCOC(=O)[C@@]23CCC(C)(C)C[C@@H]2C2=CC[C@H]4[C@]5(C)CC[C@@H](O)C(C)(C)[C@H]5CC[C@]4(C)[C@@]2(C)CC3)c(=O)n(CCCCCCCCOC(=O)[C@@]23CCC(C)(C)C[C@@H]2C2=CC[C@H]4[C@]5(C)CC[C@@H](O)C(C)(C)[C@H]5CC[C@]4(C)[C@@]2(C)CC3)c1=O,IC50,[1],4.83 µM
same,IC50,[2]; [6],20 µM
same,IC50,[3],< 0.1 µM
same,IC50,[4],4.45 µM
same,IC50,[5],3.11 µM
Cc1cn(CCOC(=O)[C@]23CCC(C)(C)C[C@H]2C2=CC[C@@H]4[C@@]5(C)CC[C@H](O)C(C)(C)[C@@H]5CC[C@@]4(C)[C@]2(C)CC3)c(=O)[nH]c1=O,IC50,[1],5.41 µM
same,IC50,[2]; [6],1.93 µM
same,IC50,[3],35.1 µM
same,IC50,[4],10.2 µM
same,IC50,[5],0.16 µM
CC1(C)CC[C@]2(C(=O)OCCCCCCCCn3ccc(=O)[nH]c3=O)CC[C@]3(C)C(=CC[C@@H]4[C@@]5(C)CC[C@H](O)C(C)(C)[C@@H]5CC[C@]43C)[C@@H]2C1,IC50,[1],1.05 µM
same,IC50,[2]; [6],20.9 µM
same,IC50,[3],8.47 µM
same,IC50,[4],< 0.1 µM
same,IC50,[5],14.9 µM
Cc1cn(CCCCCCCCOC(=O)[C@]23CCC(C)(C)C[C@H]2C2=CC[C@@H]4[C@@]5(C)CC[C@H](O)C(C)(C)[C@@H]5CC[C@@]4(C)[C@]2(C)CC3)c(=O)[nH]c1=O,IC50,[1],8.72 µM
same,IC50,[2]; [6],0.23 µM
same,IC50,[3],1.11 µM
same,IC50,[4],16.1 µM
same,IC50,[5],0.29 µM
CC1(C)CC[C@]2(C(=O)OCCn3ccc(=O)[nH]c3=O)CC[C@]3(C)C(=CC[C@@H]4[C@@]5(C)CC[C@H](O)C(C)(C)[C@@H]5CC[C@]43C)[C@@H]2C1,IC50,[1],15.2 µM
same,IC50,[2]; [6],9.61 µM
same,IC50,[3],0.36 µM
same,IC50,[4],45.9 µM
same,IC50,[5],0.37 µM
